Data from patent publication US11583217B2, “Neurophysiological data analysis using spatiotemporal parcellation” (Firefly Neuroscience Ltd., priority 2012, dated 2023).

Key:
Assay type in all cases: in vivo, human
ADHD subject = assay: BNA pattern similarity from EEG data of ADHD subjects treated with MPH
Source text: The BNA patterns shown in FIGS. 6A-6D are associated subject-specific BNA patterns constructed from EEG data recorded from a particular ADHD subject. The black dots in FIGS. 6A-6D show the locations of the EEG electrodes. The color codes in these BNA patterns are the same as defined above. The subject-specific BNA patterns shown in FIGS. 6A-6B describe the association of the ADHD subject to a group of untreated ADHD subjects, and the BNA patterns shown in FIGS. 6C-6D describe the association of the ADHD subject to a group of ADHD subjects all treated with methylphenidate (MPH). The subject-specific BNA patterns shown in FIGS. 6A and 6C are based on EEG data recorded from the ADHD subject before any treatment, and subject-specific BNA patterns shown in FIGS. 6B and 6D are based on EEG data recorded from the ADHD subject following a treatment with MPH.
The baseline annotated BNA pattern constructed from the group of untreated ADHD subjects, and the baseline annotated BNA pattern constructed from the same group of subjects, but following treatment with MPH are shown in FIGS. 6E and 6F, respectively.
The calculated similarity corresponding to the BNA pattern of FIG. 6A is 0.73, the calculated similarity corresponding to the BNA pattern of FIG. 6B is 0.19, the calculated similarity corresponding to the BNA pattern of FIG. 6C is 0.56, and the calculated similarity corresponding to the BNA pattern of FIG. 6D is 0.6.
The BNA patterns shown in FIGS. 7A-7D were constructed from EEG data recorded from a different ADHD subject, which was also treated with MPH according to the same protocol as described above with respect to the responder subject of FIGS. 6A-6D. The black dots in FIGS. 7A-7D show the locations of the EEG electrodes, and the color codes in these BNA patterns is the same as defined above. Thus, the subject-specific BNA patterns shown in FIGS. 7A-7B describe the association of the ADHD subject to a group of untreated ADHD subjects, and the BNA patterns shown in FIGS. 7C-7D describe the association of the ADHD subject to a group of ADHD subjects all treated with methylphenidate (MPH). The subject-specific BNA patterns shown in FIGS. 7A and 7C are based on EEG data recorded from the ADHD subject before any treatment, and subject-specific BNA patterns shown in FIGS. 7B and 7D are based on EEG data recorded from the ADHD subject following a treatment with MPH.
The calculated similarity corresponding to the BNA pattern of FIG. 7A is 0, the calculated similarity corresponding to the BNA pattern of FIG. 7B is 0, the calculated similarity corresponding to the BNA pattern of FIG. 7C is 0.06, and the calculated similarity corresponding to the BNA pattern of FIG. 7D is 0.

groups of subjects = assay: Group BNA patterns from EEG data during working memory test (cue/probe); conditions: vs placebo
Source text: FIGS. 10A-10H show group BNA patterns constructed from EEG data recorded from two groups of subjects during a working memory test. The black dots in FIGS. 10A-10H show the locations of the EEG electrodes, and the color codes in these BNA patterns is the same as defined above. During the test, each subject of the group was asked to memorize an image of a human face (referred to as the “cue”). Two seconds later, the subject was again presented with an image of a human face (referred to as the “probe”) and was asked to determine whether the probe matches the cue.
FIGS. 10A and 10B are group BNA patterns constructed following treatment with a placebo (referred to below as placebo A), and FIGS. 10C and 10D are group BNA patterns constructed following treatment with a Scopolamine. The BNA patterns of the second group are shown in FIGS. 10E-10H, where FIGS. 10E and 10F are group BNA patterns constructed following treatment with a placebo (referred to below as placebo B), and FIGS. 10G and 10H are BNA patterns constructed following treatment with a Ketamine.
The BNA pattern of FIGS. 10A, 10C, 10E and 10G were constructed from the data acquired during the time at which the cue was presented and are recognized by the present inventor as containing information pertaining to the memorization process in the brain (also known in the literature as “encoding”). The BNA patterns of FIGS. 10B, 10D, 10F and 10H were constructed from the data acquired during the time at which the probe was presented, and are recognized by the present inventor as containing information pertaining to the retrieval process in the brain. It is noted that the BNA patterns of FIGS. 10A-10H describe differentiating activity networks. Thus, for example, the BNA pattern of FIG. 10A describes the brain activity during […] that most differentiated between placebo A and Scopolamine, and the BNA pattern of FIG. 10B describes the brain activity during […] that most differentiated between placebo B and Ketamine.

healthy volunteers = assay: Scopolamine induced cognitive impairment model, ΔBNA scores in Auditory Oddball Task; conditions: scopolamine 0.4 mg, Novel stimulus, connectivity score; only 2 patients on placebo
Source text: The task chosen for this study was the Auditory Oddball Task, but other tasks are not excluded from the scope of the present invention. FIG. 21 is a schematic representation of an Auditory Oddball Task used in this study. The task included 600 repetitive 1000 ms auditory stimulations of which 80% were 2000 Hz stimuli (Frequent—blue circles), 10% were 1000 Hz stimuli requiring a motor response (Target—red circles) and 10% were rare non-targets composed of various sounds (Novel—yellow star). The stimuli were separated by 1500 ms intervals. The sound was delivered through a headset at a sound pressure level of 70 dB.
• Repeatability: Within-subject BNA score repeatability was assessed by computing the Intraclass Correlation. • Normality Tests: Normality of ΔBNA distributions was evaluated using the Kolmogorov-Smirnov test of normality (p≥0.200) and validated with corresponding Q-Q plots. • SEM Computation: The change over time in the BNA Scores of a subject/patient from baseline (ΔBNA) is evaluated in terms of standard error of measurements (SEM) against the Normative Database to determine likelihood of true change.
A pharmacological model study included 13 healthy volunteers of both genders, Aged 18-45. […] The second and third sessions were at random order, double blind. ΔBNA Score values (Baseline—Placebo and Baseline—Drug) were evaluated against SEM values. […]

[1] = test system: healthy volunteer subjects; assay: Clinical observation of behavioral endpoint following scopolamine; conditions: following treatment with scopolamine
Source text: (§1) The calculated similarities are 0.937, 0.079, 1.0 and 0.94, respectively. It is recognized by the present inventors that these similarity values indicate that the responsivity to scopolamine is high for the first subject (FIGS. 8A and 8B) and low for the second subject (FIGS. 8C and 8D).

[2] = test system: healthy volunteer subjects; assay: BNA pattern similarity from EEG data of healthy volunteers during attention oddball task, scopolamine vs placebo
Source text: FIGS. 8A-8D show associated subject-specific BNA patterns constructed from EEG data recorded from two healthy volunteer subjects. The black dots in FIGS. 8A-8D show the locations of the EEG electrodes, and the color codes in these BNA patterns are the same as defined above. The subject-specific BNA patterns shown in FIGS. 8A-8D describe the association of the subjects to a group of healthy subjects following treatment with a placebo drug and while performing an attention task related oddball task.
FIGS. 8A and 8C are subject-specific BNA patterns constructed from EEG data collected from a first subject (FIG. 8A) and a second subject (FIG. 8C) following treatment with a placebo, and FIGS. 8B and 8D are subject-specific BNA patterns constructed from EEG data collected from the first subject (FIG. 8B) and the second subject (FIG. 8D) following treatment with a scopolamine drug. Scopolamine is an anticholinergic drug with inhibitory effect on M2-cholinergic receptors of excited type. It has an inhibitory effect on the cerebral cortex, typically inducing slight-anesthetic effect.
as §1

Row | SMILES | responsiveness to treatment inferred from similarity values (ADHD subject; ADHD subject of FIGS. 6A-6D) | responsiveness to treatment inferred from similarity values (ADHD subject; ADHD subject of FIGS. 7A-7D) | BNA pattern similarity to baseline BNA pattern of untreated ADHD group (ADHD subject; different ADHD subject, following MPH (FIG. 7B), 0 before treatment) | BNA pattern similarity to baseline BNA pattern of MPH-treated ADHD group (ADHD subject; different ADHD subject, following MPH (FIG. 7D), 0.06 before treatment) | BNA pattern similarity to baseline BNA pattern of untreated ADHD group (ADHD subject; responder ADHD subject, following single dose MPH (FIG. 6B), 0.73 before treatment) | BNA pattern similarity to baseline BNA pattern of MPH-treated ADHD group (ADHD subject; responder ADHD subject, following single dose MPH (FIG. 6D), 0.56 before treatment) | central and frontal activation in the group BNA pattern (groups of subjects) | fronto-parietal part of the group BNA pattern (groups of subjects) | right lateralization in the group BNA pattern (groups of subjects) | patients with post-treatment BNA scores more than 2 SEM lower than the baseline score (healthy volunteers) | decrease in behavioral endpoint ([1]; first subject) [%] | change in behavioral endpoint ([1]; second subject) | responsivity to scopolamine ([2]; first subject (FIGS. 8A and 8B)) | BNA pattern similarity to baseline BNA pattern of placebo-treated healthy group ([2]; first subject, following scopolamine (FIG. 8B), 0.937 after placebo) | responsivity to scopolamine ([2]; second subject (FIGS. 8C and 8D)) | BNA pattern similarity to baseline BNA pattern of placebo-treated healthy group ([2]; second subject, following scopolamine (FIG. 8D), 1.0 after placebo)
1 | COC(=O)C(c1ccccc1)C1CCCCN1 (stereo not drawn) [MPH, methylphenidate] | responsive to the treatment | not responsive to the treatment | 0 | 0 | 0.19 | 0.6 |  |  |  |  |  |  |  |  |  | 
2 | CNC1(c2ccccc2Cl)CCCCC1=O (stereo not drawn) [ketamine] |  |  |  |  |  |  | increased central and frontal activation | No significant change | decreased right lateralization |  |  |  |  |  |  | 
3 | CN1[C@@H]2C[C@@H](OC(=O)[C@H](CO)c3ccccc3)C[C@H]1[C@@H]1O[C@@H]12 [scopolamine] |  |  |  |  |  |  | extensive compensatory central and frontal activation | low connectivity between frontal and parietal regions |  | Eight out of 13 | 70 | no change | high | 0.079 | low | 0.94
